Source: ChEMBL document CHEMBL3137667, “[Drug-induced liver injury; fourteenth updated edition of the bibliographic database of liver injuries and related drugs]” (Gastroenterol Clin Biol, 2004)

Key:
[1] = Highest frequency of moderate liver toxicity observed during clinical trials, expressed as a percentage. [column '% BIOL' in source]; details: human
[2] = Highest frequency of acute liver toxicity observed during clinical trials, expressed as a percentage. [column '% AIGUE' in source]; details: human
[3] = Times to onset, minimal and maximal, observed in the indexed observations. [column 'DELAI' in source]; details: human
[4] = human, serum
[5] = human, serum; remark: listed apart in the source
[6] = human
[7] = human; remark: listed apart in the source
[8] = human; remark: listed apart in the source
[9] = human, serum, 4383 h
[10] = human; remark: listed apart in the source
[11] = human; remark: listed apart in the source
[12] = human; remark: listed apart in the source
[13] = human; remark: listed apart in the source
[14] = human; remark: listed apart in the source
[15] = human; remark: listed apart in the source
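Wherever Hepatotoxicity (association with vascular disease) is given: count of indexed literature references reporting vascular liver injury in humans, e.g. peliosis hepatitis, hepatic veno-occlusive disease or Budd-Chiari syndrome.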
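Wherever Hepatotoxicity (benign tumour) is given: value is a count of indexed literature references citing a benign tumour confirmed by histopathology.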
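Wherever Hepatotoxicity (choleostasis) is given: human cholestatic liver injury, shown by histopathology or by peak ALT or AST elevation over alkaline phosphatase ratio below 2, value counts indexed literature reports.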
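Wherever Hepatotoxicity (chronic liver disease) is given: chronic liver injury confirmed by histopathology or persistently raised serum aminotransferase activity beyond 6 months, value given as the count of indexed literature references.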
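Wherever Hepatotoxicity (cirrhosis) is given: value is a count of indexed literature references reporting cirrhosis confirmed by histopathology.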
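Wherever Hepatotoxicity (cytolytic) is given: human cytolytic liver injury, shown by histopathology or by a ratio above 5 of peak ALT or AST elevation to alkaline phosphatase elevation, value counts indexed references.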
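Wherever Hepatotoxicity (granulomatous hepatitis) is given: value is a count of indexed literature references reporting granulomatous liver disease confirmed by histopathology.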
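Wherever Hepatotoxicity (malignant tumour) is given: malignant tumour confirmed by histopathology, value gives the count of indexed literature references reporting it.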
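Wherever Hepatotoxicity (severe hepatitis) is given: human clinical data: severe hepatitis, meaning potentially life-threatening liver failure or clinically observed cases, the value counts how many indexed literature references report it.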
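Wherever Hepatotoxicity (steatosis) is given: steatosis confirmed by histopathology, value is the count of indexed references.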

Molecule: Clc1ccc(COC(Cn2ccnc2)c2ccc(Cl)cc2Cl)cc1 (stereo not given) [ECONAZOLE]
- Hepatotoxicity (moderate) [1]: 0%
- Hepatotoxicity (acute) [2]: 0%
- Hepatotoxicity (time to onset) [3]: 4 months
- Hepatotoxicity (moderate) [4]: 1
- Hepatotoxicity (acute) [5]: 1
- Hepatotoxicity (cytolytic) [6]: 0
- Hepatotoxicity (choleostasis) [7]: 0
- Hepatotoxicity (severe hepatitis) [8]: 0
- Hepatotoxicity (chronic liver disease) [9]: 0
- Hepatotoxicity (cirrhosis) [10]: 0
- Hepatotoxicity (granulomatous hepatitis) [11]: 0
- Hepatotoxicity (association with vascular disease) [12]: 0
- Hepatotoxicity (steatosis) [13]: 0
- Hepatotoxicity (malignant tumour) [14]: 0
- Hepatotoxicity (benign tumour) [15]: 0

Molecule: CCC[C@H](N[C@@H](C)C(=O)N1[C@H](C(=O)O)C[C@@H]2CCCC[C@@H]21)C(=O)OCC [PERINDOPRIL]
- Hepatotoxicity (moderate) [1]: 12.2%
- Hepatotoxicity (acute) [2]: 0%
- Hepatotoxicity (time to onset) [3]: 3 weeks
- Hepatotoxicity (moderate) [4]: 1
- Hepatotoxicity (acute) [5]: 1
- Hepatotoxicity (cytolytic) [6]: 1
- Hepatotoxicity (choleostasis) [7]: 0
- Hepatotoxicity (severe hepatitis) [8]: 0
- Hepatotoxicity (chronic liver disease) [9]: 0
- Hepatotoxicity (cirrhosis) [10]: 0
- Hepatotoxicity (granulomatous hepatitis) [11]: 0
- Hepatotoxicity (association with vascular disease) [12]: 0
- Hepatotoxicity (steatosis) [13]: 0
- Hepatotoxicity (malignant tumour) [14]: 0
- Hepatotoxicity (benign tumour) [15]: 0

Molecule: COc1ccc(CCN(C)CCCC2(c3ccc(OC)c(OC)c3)S(=O)(=O)CCCS2(=O)=O)cc1OC
- Hepatotoxicity (moderate) [1]: 6.7%
- Hepatotoxicity (acute) [2]: 0%
- Hepatotoxicity (time to onset) [3]: 1 month
- Hepatotoxicity (moderate) [4]: 2
- Hepatotoxicity (acute) [5]: 1
- Hepatotoxicity (cytolytic) [6]: 0
- Hepatotoxicity (choleostasis) [7]: 1
- Hepatotoxicity (severe hepatitis) [8]: 0
- Hepatotoxicity (chronic liver disease) [9]: 0
- Hepatotoxicity (cirrhosis) [10]: 0
- Hepatotoxicity (granulomatous hepatitis) [11]: 0
- Hepatotoxicity (association with vascular disease) [12]: 0
- Hepatotoxicity (steatosis) [13]: 0
- Hepatotoxicity (malignant tumour) [14]: 0
- Hepatotoxicity (benign tumour) [15]: 0

Molecule: O=P(O)(O)C(Sc1ccc(Cl)cc1)P(=O)(O)O [TILUDRONIC ACID]
- Hepatotoxicity (moderate) [1]: 0.9%
- Hepatotoxicity (acute) [2]: 0%
- Hepatotoxicity (time to onset) [3]: 8 weeks
- Hepatotoxicity (moderate) [4]: 1
- Hepatotoxicity (acute) [5]: 0
- Hepatotoxicity (cytolytic) [6]: 0
- Hepatotoxicity (choleostasis) [7]: 0
- Hepatotoxicity (severe hepatitis) [8]: 0
- Hepatotoxicity (chronic liver disease) [9]: 0
- Hepatotoxicity (cirrhosis) [10]: 0
- Hepatotoxicity (granulomatous hepatitis) [11]: 0
- Hepatotoxicity (association with vascular disease) [12]: 0
- Hepatotoxicity (steatosis) [13]: 0
- Hepatotoxicity (malignant tumour) [14]: 0
- Hepatotoxicity (benign tumour) [15]: 0

Molecule: CC1=C(/C=C/C(C)=C/C=C/C(C)=C/C(=O)Nc2ccc(O)cc2)C(C)(C)CCC1 [FENRETINIDE]
- Hepatotoxicity (moderate) [1]: 12.8%
- Hepatotoxicity (acute) [2]: 0%
- Hepatotoxicity (time to onset) [3]: 1 week
- Hepatotoxicity (moderate) [4]: 3
- Hepatotoxicity (acute) [5]: 0
- Hepatotoxicity (cytolytic) [6]: 0
- Hepatotoxicity (choleostasis) [7]: 0
- Hepatotoxicity (severe hepatitis) [8]: 0
- Hepatotoxicity (chronic liver disease) [9]: 0
- Hepatotoxicity (cirrhosis) [10]: 0
- Hepatotoxicity (granulomatous hepatitis) [11]: 0
- Hepatotoxicity (association with vascular disease) [12]: 0
- Hepatotoxicity (steatosis) [13]: 0
- Hepatotoxicity (malignant tumour) [14]: 0
- Hepatotoxicity (benign tumour) [15]: 0

Molecule: Cc1c(-c2ccccc2)oc2c(C(=O)OCCN3CCCCC3)cccc2c1=O [FLAVOXATE]
- Hepatotoxicity (moderate) [1]: 0%
- Hepatotoxicity (acute) [2]: 0%
- Hepatotoxicity (time to onset) [3]: 2.5 months
- Hepatotoxicity (moderate) [4]: 0
- Hepatotoxicity (acute) [5]: 1
- Hepatotoxicity (cytolytic) [6]: 1
- Hepatotoxicity (choleostasis) [7]: 0
- Hepatotoxicity (severe hepatitis) [8]: 0
- Hepatotoxicity (chronic liver disease) [9]: 0
- Hepatotoxicity (cirrhosis) [10]: 0
- Hepatotoxicity (granulomatous hepatitis) [11]: 0
- Hepatotoxicity (association with vascular disease) [12]: 0
- Hepatotoxicity (steatosis) [13]: 0
- Hepatotoxicity (malignant tumour) [14]: 0
- Hepatotoxicity (benign tumour) [15]: 0

Molecule: CCN(CC)CCOc1ccc(C(=C(Cl)c2ccccc2)c2ccccc2)cc1 [CLOMIPHENE]
- Hepatotoxicity (moderate) [1]: 0%
- Hepatotoxicity (acute) [2]: 0%
- Hepatotoxicity (time to onset) [3]: 2 weeks - 8 years
- Hepatotoxicity (moderate) [4]: 1
- Hepatotoxicity (acute) [5]: 2
- Hepatotoxicity (cytolytic) [6]: 1
- Hepatotoxicity (choleostasis) [7]: 1
- Hepatotoxicity (severe hepatitis) [8]: 0
- Hepatotoxicity (chronic liver disease) [9]: 0
- Hepatotoxicity (cirrhosis) [10]: 0
- Hepatotoxicity (granulomatous hepatitis) [11]: 0
- Hepatotoxicity (association with vascular disease) [12]: 0
- Hepatotoxicity (steatosis) [13]: 0
- Hepatotoxicity (malignant tumour) [14]: 1
- Hepatotoxicity (benign tumour) [15]: 1

Molecule: C[C@H]1[C@H](OC(=O)CCC(=O)O)O[C@@H]2O[C@@]3(C)CC[C@H]4[C@H](C)CC[C@@H]1[C@@]24OO3 [ARTESUNATE]
- Hepatotoxicity (moderate) [1]: 0%
- Hepatotoxicity (acute) [2]: 6.7%
- Hepatotoxicity (time to onset) [3]: 48 days
- Hepatotoxicity (moderate) [4]: 0
- Hepatotoxicity (acute) [5]: 1
- Hepatotoxicity (cytolytic) [6]: 1
- Hepatotoxicity (choleostasis) [7]: 0
- Hepatotoxicity (severe hepatitis) [8]: 0
- Hepatotoxicity (chronic liver disease) [9]: 0
- Hepatotoxicity (cirrhosis) [10]: 0
- Hepatotoxicity (granulomatous hepatitis) [11]: 0
- Hepatotoxicity (association with vascular disease) [12]: 0
- Hepatotoxicity (steatosis) [13]: 0
- Hepatotoxicity (malignant tumour) [14]: 0
- Hepatotoxicity (benign tumour) [15]: 0

Molecule: CCN(CC)C(=O)C1(c2ccccc2)CC1CN (stereo not given)
- Hepatotoxicity (moderate) [1]: 0%
- Hepatotoxicity (acute) [2]: 0%
- Hepatotoxicity (time to onset) [3]: 6 months
- Hepatotoxicity (moderate) [4]: 0
- Hepatotoxicity (acute) [5]: 1
- Hepatotoxicity (cytolytic) [6]: 1
- Hepatotoxicity (choleostasis) [7]: 0
- Hepatotoxicity (severe hepatitis) [8]: 0
- Hepatotoxicity (chronic liver disease) [9]: 0
- Hepatotoxicity (cirrhosis) [10]: 0
- Hepatotoxicity (granulomatous hepatitis) [11]: 0
- Hepatotoxicity (association with vascular disease) [12]: 0
- Hepatotoxicity (steatosis) [13]: 0
- Hepatotoxicity (malignant tumour) [14]: 0
- Hepatotoxicity (benign tumour) [15]: 0

Molecule: CN(c1nccc(=O)[nH]1)C1CCN(c2nc3ccccc3n2Cc2ccc(F)cc2)CC1 [MIZOLASTINE]
- Hepatotoxicity (moderate) [1]: 0%
- Hepatotoxicity (acute) [2]: 0%
- Hepatotoxicity (time to onset) [3]: 2 months
- Hepatotoxicity (moderate) [4]: 0
- Hepatotoxicity (acute) [5]: 2
- Hepatotoxicity (cytolytic) [6]: 2
- Hepatotoxicity (choleostasis) [7]: 0
- Hepatotoxicity (severe hepatitis) [8]: 0
- Hepatotoxicity (chronic liver disease) [9]: 0
- Hepatotoxicity (cirrhosis) [10]: 0
- Hepatotoxicity (granulomatous hepatitis) [11]: 0
- Hepatotoxicity (association with vascular disease) [12]: 0
- Hepatotoxicity (steatosis) [13]: 0
- Hepatotoxicity (malignant tumour) [14]: 0
- Hepatotoxicity (benign tumour) [15]: 0

Molecule: [3-(8,8-Diethyl-2-aza-8-germa-spiro[4.5]dec-2-yl)-propyl]-dimethyl-amine
- Hepatotoxicity (moderate) [1]: 27%
- Hepatotoxicity (acute) [2]: 6.5%
- Hepatotoxicity (time to onset) [3]: 8 weeks
- Hepatotoxicity (moderate) [4]: 6
- Hepatotoxicity (acute) [5]: 2
- Hepatotoxicity (cytolytic) [6]: 0
- Hepatotoxicity (choleostasis) [7]: 0
- Hepatotoxicity (severe hepatitis) [8]: 0
- Hepatotoxicity (chronic liver disease) [9]: 0
- Hepatotoxicity (cirrhosis) [10]: 0
- Hepatotoxicity (granulomatous hepatitis) [11]: 0
- Hepatotoxicity (association with vascular disease) [12]: 0
- Hepatotoxicity (steatosis) [13]: 0
- Hepatotoxicity (malignant tumour) [14]: 0
- Hepatotoxicity (benign tumour) [15]: 0
